What was measured:
SIRT2 = target: T1, SIRT2 (Homo sapiens, UniProt Q8IXJ6); assay: SIRT-Glo enzyme inhibition assay, SIRT2; conditions: for inhibition at 50 µM: read-out: SIRT2 percentage inhibition at 50 µM compound, 50 µM compound
T1 sequence (Q8IXJ6 1-389): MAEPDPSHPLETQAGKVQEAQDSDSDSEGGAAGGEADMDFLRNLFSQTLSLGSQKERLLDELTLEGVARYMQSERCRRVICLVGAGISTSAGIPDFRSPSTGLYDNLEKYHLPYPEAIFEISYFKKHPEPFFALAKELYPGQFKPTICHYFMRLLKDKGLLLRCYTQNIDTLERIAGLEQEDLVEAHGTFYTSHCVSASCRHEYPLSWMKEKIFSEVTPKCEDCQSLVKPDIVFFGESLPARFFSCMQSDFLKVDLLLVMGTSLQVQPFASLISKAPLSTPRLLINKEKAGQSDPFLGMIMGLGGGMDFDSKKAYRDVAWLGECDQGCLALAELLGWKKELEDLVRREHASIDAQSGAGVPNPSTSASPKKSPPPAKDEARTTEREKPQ
Description: SIRT1, SIRT2, and SIRT3 were purchased from Cayman Chemical. Enzyme inhibition assays were performed in 96-well black plates using the SIRT-Glo Assay (Promega Corp.) according to the manufacturer’s instructions. Compounds were dissolved in 100% DMSO and to make 5- or 10-mM stock solutions. For initial enzyme inhibition tests, 50 µM of inhibitory concentration was used. […] IC50 values were determined in triplicate and reported values are averages of two independent experiments.

SIRT1 = target: T2, SIRT1 (Homo sapiens, UniProt Q96EB6); assay: SIRT-Glo enzyme inhibition assay, SIRT1; conditions: for inhibition at 50 µM: read-out: SIRT1 percentage inhibition at 50 µM compound, 50 µM compound
T2 sequence (Q96EB6 1-747): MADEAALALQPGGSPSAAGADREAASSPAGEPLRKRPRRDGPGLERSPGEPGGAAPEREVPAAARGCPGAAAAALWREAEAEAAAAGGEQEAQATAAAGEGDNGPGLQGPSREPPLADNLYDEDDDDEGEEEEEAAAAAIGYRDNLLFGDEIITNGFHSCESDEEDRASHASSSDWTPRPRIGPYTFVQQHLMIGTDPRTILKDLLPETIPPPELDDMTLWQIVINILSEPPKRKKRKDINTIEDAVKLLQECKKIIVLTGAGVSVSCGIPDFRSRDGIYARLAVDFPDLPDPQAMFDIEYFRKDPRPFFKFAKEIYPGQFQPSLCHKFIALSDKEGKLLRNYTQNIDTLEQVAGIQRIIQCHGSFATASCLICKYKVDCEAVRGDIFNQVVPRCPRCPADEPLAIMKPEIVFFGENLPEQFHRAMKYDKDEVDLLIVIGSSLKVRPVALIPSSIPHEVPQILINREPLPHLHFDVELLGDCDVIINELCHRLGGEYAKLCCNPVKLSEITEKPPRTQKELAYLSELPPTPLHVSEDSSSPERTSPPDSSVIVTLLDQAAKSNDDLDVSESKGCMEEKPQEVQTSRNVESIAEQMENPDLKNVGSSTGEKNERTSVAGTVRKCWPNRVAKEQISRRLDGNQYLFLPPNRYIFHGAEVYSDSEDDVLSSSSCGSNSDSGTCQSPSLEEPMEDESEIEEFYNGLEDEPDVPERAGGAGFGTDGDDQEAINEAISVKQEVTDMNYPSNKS

Row | Molecule | SIRT2 percentage inhibition at 50 µM compound (SIRT2) [%] | SIRT1 percentage inhibition at 50 µM compound (SIRT1) [%] | IC50 (SIRT2; SIRT2 IC50) [µM] | inhibition at 50 µM (SIRT2) [%] | IC50 (SIRT1) [µM] | inhibition at 50 µM (SIRT1) [%]
1 | 2-[(6-Bromo-2-hydroxynaphthalen-1-yl)methyl]-1-[4-(trifluoromethyl)phenyl]hex-5-yne-1,3-dione [Compound 46] | 88 | 28 |  |  |  | 
2 | 2-[(6-Bromo-2-hydroxynaphthalen-1-yl)methyl]-3-(3-bromophenyl)-N-(furan-3-ylmethyl)-3-oxopropanamide [Compound 39] | 30 | 13 |  |  |  | 
3 | 2-[(6-Bromo-2-hydroxynaphthalen-1-yl)methyl]-3-(4-acetamidophenyl)-3-oxopropanamide [Compound 28] | 58 | 0.0 |  |  |  | 
4 | Cc1ccc(C(=O)C(Cc2c(O)ccc3cc(Br)ccc23)C(N)=O)cc1 (centres unmarked) [Compound 4, 2-[(6-Bromo-2-hydroxynaphthalen-1-yl)methyl]-3-(4-methylphenyl)-3-oxopropanamide] |  |  | 13 | 89 | > 200 | 9
5 | Cc1cccc(C(=O)C(Cc2c(O)ccc3cc(Br)ccc23)C(N)=O)c1 (centres unmarked) [Compound 16, 2-[(6-Bromo-2-hydroxynaphthalen-1-yl)methyl]-3-(3-methylphenyl)-3-oxopropanamide] |  |  |  | 70 |  | 38
6 | Cc1ccccc1C(=O)C(Cc1c(O)ccc2cc(Br)ccc12)C(N)=O (centres unmarked) [Compound 17, 2-[(6-Bromo-2-hydroxynaphthalen-1-yl)methyl]-3-(2-methylphenyl)-3-oxopropanamide] |  |  |  | 3 |  | 0
7 | NC(=O)C(Cc1c(O)ccc2cc(Br)ccc12)C(=O)c1ccccc1 (centres unmarked) [Compound 18, 2-[(6-Bromo-2-hydroxynaphthalen-1-yl)methyl]-3-oxo-3-phenylpropanamide] |  |  |  | 57 |  | 0
8 | COc1ccc(C(=O)C(Cc2c(O)ccc3cc(Br)ccc23)C(N)=O)cc1 (centres unmarked) [Compound 24, 2-[(6-Bromo-2-hydroxynaphthalen-1-yl)methyl]-3-(4-methoxy)-3-oxopropanamide] |  |  |  | 72 |  | 34
9 | NC(=O)C(Cc1c(O)ccc2ccccc12)C(=O)c1cccc(Br)c1 (centres unmarked) [Compound 29, 3-(3-Bromophenyl)-2-[(2-hydroxynaphthalen-1-yl)methyl]-3-oxopropanamide] |  |  |  | 14 |  | 12
10 | COc1ccc2c(CC(C(N)=O)C(=O)c3cccc(Br)c3)c(O)ccc2c1 (centres unmarked) [Compound 30, 3-(3-Bromophenyl)-2-[(2-hydroxy-6-methoxynaphthalen-1-yl)methyl]-3-oxopropanamide] |  |  |  | 32 |  | 0
11 | NC(=O)C(Cc1c(O)c(Br)cc2ccccc12)C(=O)c1cccc(Br)c1 (centres unmarked) [Compound 31, 2-[(3-Bromo-2-hydroxynaphthalen-1-yl)methyl]-3-(3-bromophenyl)-3-oxopropanamide] |  |  |  | 37 |  | 0
12 | NC(=O)C(Cc1c(O)ccc2ccc(Br)cc12)C(=O)c1cccc(Br)c1 (centres unmarked) [Compound 32, 2-[(7-Bromo-2-hydroxynaphthalen-1-yl)methyl]-3-(3-bromophenyl)-3-oxopropanamide] |  |  |  | 16 |  | 0
13 | O=C(c1cccc(Br)c1)C(Cc1c(O)ccc2cc(Br)ccc12)C(=O)N1CCOCC1 (centres unmarked) [Compound 38, 2-[(6-Bromo-2-hydroxynaphthalen-1-yl)methyl]-1-(3-bromophenyl)-3-(morpholin-4-yl)propane-1,3-dione] |  |  |  | 22 |  | 1
14 | COCCNC(=O)C(Cc1c(O)ccc2cc(Br)ccc12)C(=O)c1cccc(Br)c1 (centres unmarked) [Compound 41, 2-[(6-Bromo-2-hydroxynaphthalen-1-yl)methyl]-3-(3-bromophenyl)-N-(2-methoxyethyl)-3-oxopropanamide] |  |  |  | 53 |  | 0
15 | O=C(NCc1cccnc1)C(Cc1c(O)ccc2cc(Br)ccc12)C(=O)c1cccc(Br)c1 (centres unmarked) [Compound 42] |  |  |  | 6 |  | 3
